By inhibition is commonly meant the drop in the measured response relative to a control, in per cent.

Our source for the Activity and inhibition values is ChEMBL document CHEMBL4130363, “Synthesis and pharmacological evaluation of benzamide derivatives as potent and selective sigma-1 protein ligands” (Eur J Med Chem, 2017).

What all share (type): functional
Test [1] addresses 5-hydroxytryptamine receptor 2B (Homo sapiens) (UniProt P41595). The test can be described thus: Agonist activity at recombinant human 5-HT2B at 10 uM by aequorin reporter based assay relative to agonist.
Test [2] deals with 5-hydroxytryptamine receptor 4 (Homo sapiens) (UniProt Q13639). As to the kind of experiment: Agonist activity at recombinant human 5-HT4E assessed as induction of cAMP levels at 10 uM by HTRF assay relative to agonist. Background: cAMP levels reflect the balance of adenylyl cyclase and phosphodiesterase activity.
For test [3] the target is unchanged. The test can be described thus: Antagonist activity at recombinant human 5-HT4E assessed as inhibition of agonist-induced cAMP levels at 10 uM by HTRF assay.
Test [4] has as its target 5-hydroxytryptamine receptor 6 (Homo sapiens) (UniProt P50406). The test can be described thus: Agonist activity at recombinant human 5-HT6R assessed as induction of cAMP levels at 10 uM by HTRF assay relative to agonist.
In test [5] the target is Beta-1 adrenergic receptor (Homo sapiens) (UniProt P08588). The test can be described thus: Agonist activity at recombinant human beta-1 adrenergic receptor assessed as induction of cAMP levels at 10 uM by HTRF assay relative to agonist.
Test [6] concerns the target Beta-2 adrenergic receptor (Homo sapiens) (UniProt P07550). As to the kind of experiment: Antagonist activity at recombinant human beta-2 adrenergic receptor assessed as inhibition of agonist-induced cAMP induction at 10 uM by HTRF assay.
In test [7] the target is D(1A) dopamine receptor (Homo sapiens) (UniProt P21728). The test can be described thus: Agonist activity at recombinant human dopamine D1 receptor assessed as induction of cAMP levels at 10 uM by HTRF assay relative to agonist.
In test [8] the target is T1, Muscarinic acetylcholine receptor M1 (Homo sapiens) (UniProt P11229).
T1 sequence (whole entry): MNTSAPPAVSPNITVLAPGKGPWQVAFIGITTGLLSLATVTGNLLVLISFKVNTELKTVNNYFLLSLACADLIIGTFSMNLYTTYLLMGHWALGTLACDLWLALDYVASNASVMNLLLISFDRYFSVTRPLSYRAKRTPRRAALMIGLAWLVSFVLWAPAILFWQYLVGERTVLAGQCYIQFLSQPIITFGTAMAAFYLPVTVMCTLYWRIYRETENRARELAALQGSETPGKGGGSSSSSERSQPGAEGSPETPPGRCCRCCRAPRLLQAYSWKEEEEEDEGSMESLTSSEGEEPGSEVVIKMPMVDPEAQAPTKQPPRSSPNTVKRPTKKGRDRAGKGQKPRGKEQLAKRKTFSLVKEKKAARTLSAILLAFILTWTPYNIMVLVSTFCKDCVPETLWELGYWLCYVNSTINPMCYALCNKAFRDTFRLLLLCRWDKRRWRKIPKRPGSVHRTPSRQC
As to the kind of experiment: Agonist activity at recombinant human muscarinic M1 receptor at 10 uM by aequorin reporter based assay relative to agonist.

Test [9] has as its target T2, Muscarinic acetylcholine receptor M2 (Homo sapiens) (UniProt P08172).
T2 sequence (whole entry): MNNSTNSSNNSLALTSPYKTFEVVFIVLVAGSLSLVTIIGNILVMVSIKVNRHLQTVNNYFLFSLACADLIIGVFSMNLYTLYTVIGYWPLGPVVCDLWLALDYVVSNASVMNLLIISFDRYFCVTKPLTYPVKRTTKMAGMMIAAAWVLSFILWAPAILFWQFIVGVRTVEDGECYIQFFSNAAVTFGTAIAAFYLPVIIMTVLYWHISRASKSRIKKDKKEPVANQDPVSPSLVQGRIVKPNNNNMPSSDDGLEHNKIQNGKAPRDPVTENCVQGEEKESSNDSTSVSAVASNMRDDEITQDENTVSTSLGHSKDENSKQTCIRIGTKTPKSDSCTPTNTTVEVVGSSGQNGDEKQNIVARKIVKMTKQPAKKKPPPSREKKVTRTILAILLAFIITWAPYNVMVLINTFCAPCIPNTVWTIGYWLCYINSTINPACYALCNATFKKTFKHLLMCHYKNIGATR
The test can be described thus: Agonist activity at recombinant human muscarinic M2 receptor at 10 uM by GTPgamma[35S] binding-based assay relative to agonist. Background: GTPγS resists hydrolysis and so accumulates on activated G proteins.

The target of test [10] is T2, Muscarinic acetylcholine receptor M2 (Homo sapiens). As to the kind of experiment: Antagonist activity at human muscarinic M2 receptor assessed as inhibition of agonist-induced effect at 10 uM by GTPgamma[35S] binding-based assay.
In test [11] the target is T3, Muscarinic acetylcholine receptor M4 (Homo sapiens) (UniProt P08173).
T3 sequence (whole entry): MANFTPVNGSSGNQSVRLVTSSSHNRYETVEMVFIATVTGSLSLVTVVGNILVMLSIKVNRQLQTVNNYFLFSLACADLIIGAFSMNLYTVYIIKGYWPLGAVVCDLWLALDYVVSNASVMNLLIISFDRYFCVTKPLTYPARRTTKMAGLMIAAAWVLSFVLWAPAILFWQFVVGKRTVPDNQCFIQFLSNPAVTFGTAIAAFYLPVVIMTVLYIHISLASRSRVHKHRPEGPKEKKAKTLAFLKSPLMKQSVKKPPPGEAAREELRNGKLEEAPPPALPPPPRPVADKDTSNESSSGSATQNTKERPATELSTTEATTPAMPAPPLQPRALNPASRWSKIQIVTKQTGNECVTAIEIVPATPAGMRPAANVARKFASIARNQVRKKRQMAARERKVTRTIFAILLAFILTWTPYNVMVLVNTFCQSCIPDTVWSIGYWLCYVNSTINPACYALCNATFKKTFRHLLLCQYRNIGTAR
The test can be described thus: Antagonist activity at human muscarinic M4 receptor assessed as inhibition of agonist-induced effect at 10 uM by GTPgamma[35S] binding-based assay.

Test [12] has as its target Kappa-type opioid receptor (Homo sapiens) (UniProt P41145). The test can be described thus: Agonist activity at recombinant human kappa-type opioid receptor at 10 uM by GTPgamma[35S] binding-based assay relative to agonist.
Test [13] deals with Somatostatin receptor type 4 (Homo sapiens) (UniProt P31391). As to the kind of experiment: Agonist activity at recombinant human somatostatin receptor 4 at 10 uM by GTPgamma[35S] binding-based assay relative to agonist.
In test [14] the target is T4, Vasoactive intestinal polypeptide receptor 1 (Homo sapiens) (UniProt P32241).
T4 sequence (whole entry): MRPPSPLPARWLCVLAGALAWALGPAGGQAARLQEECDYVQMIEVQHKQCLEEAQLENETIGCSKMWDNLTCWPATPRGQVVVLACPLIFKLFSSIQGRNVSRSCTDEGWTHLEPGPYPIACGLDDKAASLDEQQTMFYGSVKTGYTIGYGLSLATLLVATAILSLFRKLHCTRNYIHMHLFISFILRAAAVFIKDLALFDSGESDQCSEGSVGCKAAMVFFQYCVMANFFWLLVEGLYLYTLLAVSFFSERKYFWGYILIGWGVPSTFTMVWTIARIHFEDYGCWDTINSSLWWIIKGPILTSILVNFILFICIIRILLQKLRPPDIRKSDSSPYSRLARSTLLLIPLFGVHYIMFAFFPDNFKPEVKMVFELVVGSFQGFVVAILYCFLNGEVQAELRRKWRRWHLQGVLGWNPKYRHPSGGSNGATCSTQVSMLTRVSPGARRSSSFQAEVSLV
As to the kind of experiment: Agonist activity at recombinant human VPAC1 receptor at 10 uM by aequorin reporter based assay relative to agonist.

Chain of Kappa-type opioid receptor (Homo sapiens) (P41145 whole entry): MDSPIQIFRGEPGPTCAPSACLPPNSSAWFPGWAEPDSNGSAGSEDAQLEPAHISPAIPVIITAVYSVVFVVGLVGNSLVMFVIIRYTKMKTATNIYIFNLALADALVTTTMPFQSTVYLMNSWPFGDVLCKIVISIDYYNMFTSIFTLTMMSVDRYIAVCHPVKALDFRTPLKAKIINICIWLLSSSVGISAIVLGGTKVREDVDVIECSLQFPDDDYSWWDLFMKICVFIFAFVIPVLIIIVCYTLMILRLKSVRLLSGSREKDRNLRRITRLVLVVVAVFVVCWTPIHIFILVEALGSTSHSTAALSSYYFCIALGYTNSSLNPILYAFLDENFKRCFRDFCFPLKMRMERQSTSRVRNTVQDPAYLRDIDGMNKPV
Chain of 5-hydroxytryptamine receptor 2B (Homo sapiens) (P41595 whole entry): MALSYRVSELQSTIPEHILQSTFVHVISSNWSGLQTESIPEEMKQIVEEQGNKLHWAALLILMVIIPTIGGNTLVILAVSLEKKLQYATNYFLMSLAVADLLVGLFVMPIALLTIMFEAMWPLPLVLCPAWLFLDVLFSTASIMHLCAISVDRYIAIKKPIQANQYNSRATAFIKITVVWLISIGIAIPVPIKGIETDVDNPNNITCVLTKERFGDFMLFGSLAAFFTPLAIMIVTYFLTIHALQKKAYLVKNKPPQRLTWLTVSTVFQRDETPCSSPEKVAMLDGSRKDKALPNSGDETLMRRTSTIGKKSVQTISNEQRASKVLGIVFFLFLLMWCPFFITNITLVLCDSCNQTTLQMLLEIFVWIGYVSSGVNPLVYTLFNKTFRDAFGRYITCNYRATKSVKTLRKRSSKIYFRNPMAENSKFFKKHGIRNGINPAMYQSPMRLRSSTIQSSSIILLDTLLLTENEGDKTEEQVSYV
Chain of Somatostatin receptor type 4 (Homo sapiens) (P31391 whole entry): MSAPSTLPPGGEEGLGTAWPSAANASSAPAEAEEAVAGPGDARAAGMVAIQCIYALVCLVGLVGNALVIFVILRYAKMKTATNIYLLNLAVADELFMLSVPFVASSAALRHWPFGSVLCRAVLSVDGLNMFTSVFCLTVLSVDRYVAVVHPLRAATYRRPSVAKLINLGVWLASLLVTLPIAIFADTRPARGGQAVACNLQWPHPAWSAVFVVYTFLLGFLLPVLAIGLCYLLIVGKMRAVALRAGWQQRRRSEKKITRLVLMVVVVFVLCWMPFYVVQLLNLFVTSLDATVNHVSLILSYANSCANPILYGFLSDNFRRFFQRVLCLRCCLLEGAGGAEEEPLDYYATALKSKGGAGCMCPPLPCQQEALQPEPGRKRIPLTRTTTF
Chain of 5-hydroxytryptamine receptor 4 (Homo sapiens) (Q13639 whole entry): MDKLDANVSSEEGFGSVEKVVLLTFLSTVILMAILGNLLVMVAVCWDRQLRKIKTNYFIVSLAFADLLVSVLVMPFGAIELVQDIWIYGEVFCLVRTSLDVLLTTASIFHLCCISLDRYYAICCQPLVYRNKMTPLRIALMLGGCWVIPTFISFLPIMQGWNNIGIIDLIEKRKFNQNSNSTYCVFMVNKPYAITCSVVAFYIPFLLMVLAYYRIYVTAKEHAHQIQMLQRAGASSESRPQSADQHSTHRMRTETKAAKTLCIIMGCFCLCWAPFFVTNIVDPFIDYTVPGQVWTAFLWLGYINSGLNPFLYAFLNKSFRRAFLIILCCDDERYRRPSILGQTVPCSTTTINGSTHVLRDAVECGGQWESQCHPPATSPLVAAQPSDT
Chain of D(1A) dopamine receptor (Homo sapiens) (P21728 whole entry): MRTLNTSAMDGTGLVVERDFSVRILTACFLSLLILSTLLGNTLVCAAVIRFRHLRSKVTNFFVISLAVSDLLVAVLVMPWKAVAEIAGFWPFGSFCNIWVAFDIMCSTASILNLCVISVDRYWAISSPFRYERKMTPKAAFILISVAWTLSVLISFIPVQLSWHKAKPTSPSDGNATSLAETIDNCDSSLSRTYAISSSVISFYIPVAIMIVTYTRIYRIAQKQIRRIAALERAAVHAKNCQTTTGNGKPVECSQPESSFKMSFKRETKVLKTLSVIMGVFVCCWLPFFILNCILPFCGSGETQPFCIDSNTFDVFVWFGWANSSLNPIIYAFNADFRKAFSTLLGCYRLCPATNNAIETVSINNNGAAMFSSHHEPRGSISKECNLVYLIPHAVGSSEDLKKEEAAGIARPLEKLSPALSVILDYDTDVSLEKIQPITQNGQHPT
Chain of Beta-1 adrenergic receptor (Homo sapiens) (P08588 whole entry, looked up): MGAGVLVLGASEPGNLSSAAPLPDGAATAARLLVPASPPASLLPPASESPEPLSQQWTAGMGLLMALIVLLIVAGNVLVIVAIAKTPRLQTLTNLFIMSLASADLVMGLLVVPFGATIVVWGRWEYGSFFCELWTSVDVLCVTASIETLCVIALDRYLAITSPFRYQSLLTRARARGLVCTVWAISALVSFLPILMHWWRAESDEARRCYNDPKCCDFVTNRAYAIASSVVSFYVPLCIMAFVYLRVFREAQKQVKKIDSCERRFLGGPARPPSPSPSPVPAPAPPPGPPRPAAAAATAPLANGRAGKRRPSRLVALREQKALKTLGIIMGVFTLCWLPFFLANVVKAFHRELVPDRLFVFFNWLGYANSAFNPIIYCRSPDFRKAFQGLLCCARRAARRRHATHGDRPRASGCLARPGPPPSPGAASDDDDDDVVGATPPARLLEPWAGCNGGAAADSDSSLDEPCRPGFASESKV
Chain of Beta-2 adrenergic receptor (Homo sapiens) (P07550 whole entry, looked up): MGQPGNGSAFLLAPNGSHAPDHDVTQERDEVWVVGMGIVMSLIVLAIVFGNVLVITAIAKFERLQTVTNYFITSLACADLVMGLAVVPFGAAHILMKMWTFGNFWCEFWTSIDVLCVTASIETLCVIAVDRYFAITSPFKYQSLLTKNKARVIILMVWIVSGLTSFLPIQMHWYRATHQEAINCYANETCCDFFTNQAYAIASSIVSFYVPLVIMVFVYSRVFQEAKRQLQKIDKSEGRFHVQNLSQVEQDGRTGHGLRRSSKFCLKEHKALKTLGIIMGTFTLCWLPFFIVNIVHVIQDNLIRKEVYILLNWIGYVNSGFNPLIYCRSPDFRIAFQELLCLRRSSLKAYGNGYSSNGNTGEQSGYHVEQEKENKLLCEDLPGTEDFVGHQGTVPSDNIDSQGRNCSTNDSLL
Chain of 5-hydroxytryptamine receptor 6 (Homo sapiens) (P50406 whole entry): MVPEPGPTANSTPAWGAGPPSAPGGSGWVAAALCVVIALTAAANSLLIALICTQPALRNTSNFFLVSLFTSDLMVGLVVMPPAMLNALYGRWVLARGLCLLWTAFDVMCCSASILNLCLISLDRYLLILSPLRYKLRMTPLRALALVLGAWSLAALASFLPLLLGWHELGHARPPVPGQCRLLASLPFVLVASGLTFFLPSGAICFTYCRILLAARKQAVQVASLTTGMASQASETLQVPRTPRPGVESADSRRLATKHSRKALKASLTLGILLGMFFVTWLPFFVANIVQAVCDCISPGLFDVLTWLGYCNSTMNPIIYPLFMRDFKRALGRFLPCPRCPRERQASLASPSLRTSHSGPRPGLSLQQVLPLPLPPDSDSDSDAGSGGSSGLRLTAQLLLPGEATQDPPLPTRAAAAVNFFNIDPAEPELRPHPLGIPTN

For the compound `COc1ccc(C(=O)NCCCN(C)Cc2ccccc2)cc1`, the Activity in [1] was 2%; in [2] it was -13%; in test [4], -4%; in test [5], -12%; in test [7], 4%; in test [8], 0%. Further, the Activity in test [9] is -3%; in test [12], 8%; in test [13], -3%; in test [14] it was 0%. The inhibition was found to be 8% in [3], 4% in test [6], 29% in test [10] and 25% in test [11].

With `CN(CCCNC(=O)c1ccc([N+](=O)[O-])cc1)Cc1ccccc1`, the Activity in [1] was -2%; in test [2], -4%; in [4] it was 34%; in test [5], 3%; in test [7], -1%; in test [8], 0%. The Activity in [9] is -6%; in [12], 2%; in [13], -2%; in [14], -1%. The inhibition in test [3] was -6%; in test [6], 1%; in test [10], 15%; in [11], -7%.

For the compound `CN(CCCNC(=O)c1ccc(Cl)cc1)Cc1ccccc1`, the Activity is 1% in test [1]; -9% in test [2]; 14% in test [4]; 4% in test [5]; -7% in test [7]; 0% in [8]. Moreover, the Activity in test [9] was -9%; in test [12], 2%; in [13], -6%; in test [14], 0%. For the same compound, the inhibition in [3] was -4%; in test [6] it was 0%; in test [10] it was 38%; in [11], 19%.
